Patent publication US8653046B2, “Controlling transgene expression across the skin” (ETH Zurich, priority 2009, dated 2014)

What was measured:
TtgA1 (TtgR-VP16) [1] = biological target: T1, TtgA1 (TtgR-VP16) (Pseudomonas putida, UniProt Q9AIU0); experiment: Compatibility test: phloretin-responsive SEAP production of CHO-PEACE8; format: cell-based, Pseudomonas putida DOT-T1E; set-up: expressed in transfected cells; host or cells: CHO-K1 (transient pMG11 or pMG13); also HEK-293, BHK-21, COS-7, HaCaT, HT-1080, NIH/3T3, primary human fibroblasts and keratinocytes; settings: Phl 50 μM, 48 h, 100 = no inducer
From the text: (§1) To evaluate the functional compatibility of PEACE with the established tetracycline— [TETOFF; Gossen M., Bujard H., 1992, Proc Natl Acad Sci USA 89(12):5547-5551] and macrolide— [EOFF; Weber W., et al., 2002, Nat Biotechnol 20(9):901-907] responsive expression circuits CHO-PEACE8 is transiently transfected, transgenic for phloretin-responsive SEAP expression, with either the TETOFF-(pSAM200, PSV40-tTA-pA; pBP99, PhCMV*-1-SAMY-pA) or the EOFF-(PWW35, PSV40-ET1-pA; pBP100, PETR3-SAMY-pA) system set to control the Bacillus stearothermophilus-derived secreted α-amylase (SAMY) in response to tetracycline and erythromycin, respectively. SEAP and SAMY expression are scored 48 h after cultivation of the transfected populations in the presence (50 μM; 2 μg/mL) or absence of the inducer molecules (phloretin, tetracycline, erythromycin).
The stable CHO-PEACE8 cell line, transgenic for phloretin-controlled SEAP expression, is constructed in two steps: (i) CHO-K1 cells are co-transfected with pMG11 (PSV40-TtgA1-pA) and pSV2neo (Clontech, Cat. No. 6172-1) at a ratio of 20:1 and clonal selection results in the cell line CHO-TtgA. (ii) CHO-TtgA is co-transfected with pMG10 (PTtgR1-SEAP-pA) and pPur (Clontech, Cat. No. 6156-1) (ratio of 20:1) and the phloretin-responsive SEAP-producing double-transgenic cell line CHO-PEACE8 is chosen after clonal selection. […] Reversibility of phloretin-mediated SEAP production is assessed by cultivating CHO-PEACE8 (100,000 cells/mL) for 144 h while alternating phloretin concentrations from 0 to 50 μM every 48 h.

[2] = tested on: macrolide-responsive control system (ET1, E-VP16; PETR3-SAMY-pA); experiment: Compatibility test: macrolide-responsive (EOFF) SAMY production in CHO-PEACE8 (pWW35, pBP100); format: cell-based; settings: CHO-PEACE8 transiently transfected with macrolide-responsive control system; Phl 50 μM, EM 2 μg/mL; 48 h; 100 = no inducer
From the text: as §1

[3] = biological target: T2, tetracycline-responsive control system (PSV40-tTA-pA; PhCMV*-1-SAMY-pA) (Escherichia coli, UniProt P04483); experiment: Compatibility test: tetracycline-responsive (TETOFF) SAMY production in CHO-PEACE8 (pSAM200, pBP99); format: cell-based; settings: CHO-PEACE8 transiently transfected with tetracycline-responsive control system; Phl 50 μM, Tet 2 μg/mL; 48 h; 100 = no inducer
T2 construct: expressed in transfected cells; host or cells: CHO-PEACE8 transiently transfected with pSAM200 and pBP99
From the text: as §1

TtgA1 (TtgR-VP16) [4] = biological target: T1, TtgA1 (TtgR-VP16); experiment: PEACE: SEAP expression after transient co-transfection of pMG10 (PTtgR1-SEAP-pA) and pMG11 (PSV40-TtgA1-pA); format: cell-based; settings: CHO-K1, 0, 25, 50 μM, 48 h
From the text: Living in the plant rhizosphere, Pseudomonas putida DOT-T1E has evolved resistance to a variety of plant-derived antimicrobials, which is triggered by phloretin-induced release of TtgR protein from the operator (OTtgR) of its target promoter and subsequent induction of a broadly specific TtgABC efflux pump (Teran W. et al., loc. cit.).
Three different transactivators are designed, harboring either the VP16 (TtgA1; pMG11, TtgR-VP16) (Triezenberg S. J. et al., loc. cit.), the p65 (TtgA2; pMG18, TtgR-p65) (Urlinger S., et al., 2000, Gene 247(1-2):103-110) or the human E2F4 (TtgA3; pMG19, TtgR-E2F4) (Akagi K., Kanai M., Saya H., Kozu T., Berns A., 2001, Nucleic Acids Res 29(4):e23) transactivation domains. pMG11, pMG18 or pMG19 are co-transfected with pMG10 (PTtgR1-SEAP-pA) into CHO-K1, HEK-293 as well as primary human fibroblasts and keratinocytes, and SEAP expression is profiled after 48 h of cultivation in the presence or absence of 50 μM phloretin.
(§2) CHO-K1 are transiently (co-)transfected with either pMG10 (PTtgR1-SEAP-pA) and pMG11 (PSV40-TtgA1-pA), to score regulation performance, or with pSEAP2-Control (PSV40-SEAP-pA), to assess compound-related cytotoxicity, and then cultivated for 48 h in medium containing different concentrations (0, 25, 50 μM) of specific flavonoid type compounds (berberine, butylparaben, genistein, luteolin, β-naphthol, naringenin, phloretin, phloridzin or quercetin) before SEAP production is profiled (FIG. 5A).
Wild-type Chinese hamster ovary cells (CHO-K1, ATCC: CCL-61) and their derivatives are cultivated in standard medium: ChoMaster® HTS (Cell Culture Technologies, Gravesano, Switzerland) supplemented with 5% (v/v) fetal calf serum (FCS, PAN Biotech GmbH, Aidenbach, Germany, Cat. No. 3302, Lot No. P251110) and 1% (v/v) penicillin/streptomycin solution (Sigma, St Louis, Mo., USA, Cat. No. P4458). Human embryonic kidney cells (HEK-293, Mitta B., et al., 2002, Nucleic Acids Res 30(21):e113), African green monkey kidney cells (COS-7, ATCC: CRL-1651), baby hamster kidney cells (BHK-21, ATCC: CCL10), human fibrosarcoma cells (HT-1080, ATCC: CCL-121), the human keratinocyte cell line HaCaT (Boukamp P., et al., 1988, J Cell Biol 106(3):761-771) and mouse fibroblasts (NIH/3T3, ATCC: CRL-1658) are cultured in Dulbecco's modified Eagle's medium (DMEM; Invitrogen, Cat. No. 52100-39) supplemented with 10% FCS (v/v) and 1% (v/v) penicillin/streptomycin solution. Primary human foreskin fibroblasts are cultivated in DMEM supplemented with 20% FCS (v/v) and 1% (v/v) penicillin/streptomycin solution and primary human foreskin keratinocytes are cultured in chemically defined serum-free keratinocyte medium (Invitrogen, Cat. No. 10744019). All cell types are cultivated at 37° C. in a 5% CO2-containing humidified atmosphere.

CHO-K1 = experiment: Toxicity of flavonoids: CHO-K1 transiently transfected with pSEAP2-Control, SEAP levels after 48 h; settings: 0, 25, 50 μM, genistein cytotoxic only at 50 μM
Procedure: (A) Toxicity of flavonoids. CHO-K1 are transiently transfected with pSEAP2-Control, and cultivated in medium supplemented with different flavonoids (0, 25, 50 μM). SEAP levels are scored after 48 h.
as §2
Wild-type Chinese hamster ovary cells (CHO-K1, ATCC: CCL-61) and their derivatives are cultivated in standard medium: ChoMaster® HTS (Cell Culture Technologies, Gravesano, Switzerland) supplemented with 5% (v/v) fetal calf serum (FCS, PAN Biotech GmbH, Aidenbach, Germany, Cat. No. 3302, Lot No. P251110) and 1% (v/v) penicillin/streptomycin solution (Sigma, St Louis, Mo., USA, Cat. No. P4458). Human embryonic kidney cells (HEK-293, Mitta B., et al., 2002, Nucleic Acids Res 30(21):e113), African green monkey kidney cells (COS-7, ATCC: CRL-1651), baby hamster kidney cells (BHK-21, ATCC: CCL10), human fibrosarcoma cells (HT-1080, ATCC: CCL-121), the human keratinocyte cell line HaCaT (Boukamp P., et al., 1988, J Cell Biol 106(3):761-771) and mouse fibroblasts (NIH/3T3, ATCC: CRL-1658) are cultured in Dulbecco's modified Eagle's medium (DMEM; Invitrogen, Cat. No. 52100-39) supplemented with 10% FCS (v/v) and 1% (v/v) penicillin/streptomycin solution. Primary human foreskin fibroblasts are cultivated in DMEM supplemented with 20% FCS (v/v) and 1% (v/v) penicillin/streptomycin solution and primary human foreskin keratinocytes are cultured in chemically defined serum-free keratinocyte medium (Invitrogen, Cat. No. 10744019). All cell types are cultivated at 37° C. in a 5% CO2-containing humidified atmosphere. For transient transfection of CHO-K1, 1 μg of total plasmid DNA (for co-transfection an equal amount of each plasmid) is transfected into 50,000 cells per well of a 24-well plate according to an optimized calcium phosphate protocol (Greber D., Fussenegger M., 2007, Biotechnol Bioeng 96(5):821-834). Plasmid DNA is diluted to a total volume of 25 μL 0.5 M CaCl2 solution, which is mixed with 25 μL 2×HBS solution (50 mM HEPES, 280 mM NaCl, 1.5 mM Na2HPO4, pH 7.1). After incubation for 15 min at room temperature, the precipitates are immediately added to the well and centrifuged onto the cells (5 min at 1,200×g) to increase transfection efficiency. After 3 h, the cells are treated with 0.5 mL glycerol solution (ChoMaster® HTS medium containing 15% glycerol) for 60 sec. After washing once with phosphate-buffered saline (PBS, Dulbecco's Phosphate-Buffered Saline; Invitrogen, Cat. No. 21600-0069), cells are cultivated in 0.5 mL standard ChoMaster® HTS medium in the presence or absence of different concentrations of phloretin. For transfection of BHK-21, COS-7 and HEK-293, plasmid DNA-Ca2PO4 precipitate is prepared and applied to the cells as described above. HEK-293 and COS-7 cells are washed once with PBS after 3 h incubation with the DNA-Ca2PO4 precipitate and subsequently cultivated in standard DMEM, while BHK-21 cells are incubated overnight with the precipitates and then cultivated in DMEM medium after being washed once with PBS. […]

T1 sequence (Q9AIU0 whole entry, added parts left off): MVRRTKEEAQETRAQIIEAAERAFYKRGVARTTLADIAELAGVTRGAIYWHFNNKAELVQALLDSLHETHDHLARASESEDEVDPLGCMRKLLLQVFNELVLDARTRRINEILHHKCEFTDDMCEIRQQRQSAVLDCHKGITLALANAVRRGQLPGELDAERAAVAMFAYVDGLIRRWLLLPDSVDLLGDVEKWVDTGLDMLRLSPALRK
T2 sequence (P04483 whole entry, added parts left off): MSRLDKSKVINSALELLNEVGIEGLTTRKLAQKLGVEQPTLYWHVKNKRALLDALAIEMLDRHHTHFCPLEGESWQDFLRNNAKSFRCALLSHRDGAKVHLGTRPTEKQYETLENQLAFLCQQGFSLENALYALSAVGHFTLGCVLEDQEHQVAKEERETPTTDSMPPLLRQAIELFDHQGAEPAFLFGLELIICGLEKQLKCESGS

Compound | PEACE regulation performance (SEAP production) (TtgA1 (TtgR-VP16) [4]) | compound-related cytotoxicity / cell viability (CHO-K1) | further results
CC[C@H]1OC(=O)[C@H](C)[C@@H](O[C@H]2C[C@@](C)(OC)[C@@H](O)[C@H](C)O2)[C@H](C)[C@@H](O[C@@H]2O[C@H](C)C[C@H](N(C)C)[C@H]2O)[C@](C)(O)C[C@@H](C)C(=O)[C@H](C)[C@@H](O)[C@]1(C)O [EM, erythromycin] | – | – | Relative SEAP Production (%) (TtgA1 (TtgR-VP16) [1]; CHO-PEACE8 transiently transfected with macrolide-responsive control system, EM 2 μg/mL): 102.7 ± 5.3%; Relative SAMY Production (%) [2]: 1.5 ± 1.8%
CN(C)[C@@H]1C(O)=C(C(N)=O)C(=O)[C@@]2(O)C(O)=C3C(=O)c4c(O)cccc4[C@@](C)(O)[C@H]3C[C@@H]12 [Tet, tetracycline] | – | – | Relative SEAP Production (%) (TtgA1 (TtgR-VP16) [1]; CHO-PEACE8 transiently transfected with tetracycline-responsive control system, Tet 2 μg/mL): 93.2 ± 3.8%; Relative SAMY Production (%) [3]: 3.0 ± 0.4%
COc1ccc2cc3[n+](cc2c1OC)CCc1cc2c(cc1-3)OCO2 [berberine] | fails to control PEACE | do not reduce cell viability | –
CCCCOC(=O)c1ccc(O)cc1 [butylparaben, butyl 4-hydroxybenzoate] | able to regulate but not fully repress SEAP production | do not reduce cell viability | –
O=c1c(-c2ccc(O)cc2)coc2cc(O)cc(O)c12 [genistein] | – | cytotoxic | –
O=C1C[C@@H](c2ccc(O)cc2)Oc2cc(O)cc(O)c21 [naringenin] | – | cytotoxic | –
